From PubChem BioAssay (NCI)
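96-well plates; 48 h exposure; 5 concentrations. Endpoints by linear interpolation between flanking doses. Not reached: highest tested concentration assigned. GI50 is the concentration that inhibits growth by half. The concentration for full growth arrest is given as TGI.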 *1 amine or outer side, *2 acyl side, *3 side chain or, on linkers, in order; H or OH if unused. Where a SMILES comes first, the peptide text is derived from it. Bridges are numbered along the chain shown (N, C = ends). [ ]: non-standard residue; d: D form. The star is where a group is joined. Phe(3,5-F2) = N[C@@H](Cc1cc(F)cc(F)c1)C(=O)O; Pro(4R-Me) = C[C@H]1CN[C@H](C(=O)O)C1; aThr = C[C@H](O)[C@H](N)C(=O)O; Pip = O=C(O)[C@@H]1CCCCN1; X10 = Fc1cc(C2CC2)ccc1N*; Abu = CC[C@H](N)C(=O)O; CO = O=C([*:1])[*:2]

Assays:
Assay in all cases: NCI tumour cell line growth inhibition, 48 h
[1] = tested on: 786-0 renal
[2] = tested on: A498 renal
[3] = tested on: A549 NSCLC
[4] = tested on: ACHN renal
[5] = tested on: BT-549 breast
[6] = tested on: CAKI-1 renal
[7] = tested on: CCRF-CEM leukemia
[8] = tested on: COLO 205 colon
[9] = tested on: DU-145 prostate
[10] = tested on: EKVX NSCLC
[11] = tested on: HCC-2998 colon
[12] = tested on: HCT-116 colon
[13] = tested on: HCT-15 colon
[14] = tested on: HL-60(TB) leukemia
[15] = tested on: HOP-62 NSCLC
[16] = tested on: HOP-92 NSCLC
[17] = tested on: HS 578T breast
[18] = tested on: HT29 colon
[19] = tested on: IGROV1 ovarian
[20] = tested on: K-562 leukemia
[21] = tested on: KM12 colon
[22] = tested on: LOX IMVI melanoma
[23] = tested on: M14 melanoma
[24] = tested on: MALME-3M melanoma
[25] = tested on: MCF7 breast
[26] = tested on: MDA-MB-231 breast
[27] = tested on: MDA-MB-435
[28] = tested on: MOLT-4 leukemia
[29] = tested on: NCI-H226 lung
[30] = tested on: NCI-H23 lung
[31] = tested on: NCI-H460 lung
[32] = tested on: NCI-H522 lung
[33] = tested on: NCI/ADR-RES ovarian
[34] = tested on: OVCAR-3 ovarian
[35] = tested on: OVCAR-4 ovarian
[36] = tested on: OVCAR-5 ovarian
[37] = tested on: OVCAR-8 ovarian
[38] = tested on: PC-3 prostate
[39] = tested on: RPMI-8226 leukemia
[40] = tested on: RXF 393 renal
[41] = tested on: SF-268 CNS
[42] = tested on: SF-295 CNS
[43] = tested on: SF-539 CNS
[44] = tested on: SK-MEL-2 melanoma
[45] = tested on: SK-MEL-28 melanoma
[46] = tested on: SK-MEL-5 melanoma
[47] = tested on: SK-OV-3 ovarian
[48] = tested on: SN12C renal
[49] = tested on: SNB-19 CNS
[50] = tested on: SNB-75 CNS
[51] = tested on: SR leukemia
[52] = tested on: SW-620 colon
[53] = tested on: T-47D breast
[54] = tested on: TK-10 renal
[55] = tested on: U251 CNS
[56] = tested on: UACC-257 melanoma
[57] = tested on: UACC-62 melanoma
[58] = tested on: UO-31 renal

CC[C@@H]1NC(=O)[C@@H]2CCCCN2C(=O)[C@@H]2CCCN2C(=O)[C@@H](NC(=O)[C@H](Cc2cc(F)cc(F)c2)NC(=O)Nc2ccc(C3CC3)cc2F)[C@H](C)OC(=O)[C@@H]2C[C@@H](C)CN2C1=O ({X10-CO}-[Phe(3,5-F2)][aThr]P[Pip][Abu][Pro(4R-Me)]; ester 2-C)
GI50 [1]: 205 nM
TGI [1]: 15800 nM
GI50 [2]: 32 nM
TGI [2]: 1060 nM
GI50 [3]: 62.5 nM
TGI [3]: > 65000 nM
GI50 [4]: 237 nM
TGI [4]: 6840 nM
GI50 [5]: 90.5 nM
GI50 [6]: 54.7 nM
TGI [6]: 7250 nM
GI50 [7]: 60.3 nM
TGI [7]: > 100000 nM
GI50 [8]: 39.7 nM
TGI [8]: 1290 nM
GI50 [9]: 59.3 nM
TGI [9]: > 100000 nM
GI50 [10]: 76.7 nM
TGI [10]: > 100000 nM
GI50 [11]: 61.9 nM
TGI [11]: 1620 nM
GI50 [12]: 42.7 nM
TGI [12]: 1610 nM
GI50 [13]: 220 nM
TGI [13]: 2250 nM
GI50 [14]: 39.9 nM
TGI [14]: 1650 nM
GI50 [15]: 65.8 nM
TGI [15]: > 86200 nM
GI50 [16]: 54.7 nM
TGI [16]: 4060 nM
GI50 [17]: 83 nM
TGI [17]: 4980 nM
GI50 [18]: 70.9 nM
TGI [18]: 5490 nM
GI50 [19]: 223 nM
TGI [19]: > 36700 nM
GI50 [20]: 39.1 nM
TGI [20]: > 100000 nM
GI50 [21]: 258 nM
TGI [21]: 3860 nM
GI50 [22]: 74.8 nM
TGI [22]: 4380 nM
GI50 [23]: 50.1 nM
TGI [23]: 1860 nM
GI50 [24]: 108 nM
TGI [24]: 2930 nM
GI50 [25]: 43.7 nM
TGI [25]: 14900 nM
GI50 [26]: 44.7 nM
TGI [26]: 1500 nM
GI50 [27]: 49 nM
TGI [27]: 1720 nM
GI50 [28]: 271 nM
TGI [28]: > 30000 nM
GI50 [29]: 63.2 nM
TGI [29]: 2570 nM
GI50 [30]: 65.9 nM
TGI [30]: > 28600 nM
GI50 [31]: 45.9 nM
TGI [31]: 2620 nM
GI50 [32]: 56 nM
TGI [32]: 8480 nM
GI50 [33]: 505 nM
TGI [33]: > 38100 nM
GI50 [34]: 46.3 nM
TGI [34]: 2030 nM
GI50 [35]: 37.2 nM
TGI [35]: 3260 nM
GI50 [36]: 67.9 nM
TGI [36]: 2630 nM
GI50 [37]: 42.7 nM
TGI [37]: > 100000 nM
GI50 [38]: 39.6 nM
TGI [38]: 13000 nM
GI50 [39]: 32.3 nM
TGI [39]: 1670 nM
GI50 [40]: 419 nM
TGI [40]: 2790 nM
GI50 [41]: 59.1 nM
TGI [41]: > 49600 nM
GI50 [42]: 55.2 nM
TGI [42]: 1540 nM
GI50 [43]: 137 nM
TGI [43]: 2460 nM
GI50 [44]: 90.2 nM
TGI [44]: 2570 nM
GI50 [45]: 178 nM
TGI [45]: 2420 nM
GI50 [46]: 59.2 nM
TGI [46]: 1210 nM
GI50 [47]: 64.2 nM
TGI [47]: 9830 nM
GI50 [48]: 42.9 nM
TGI [48]: > 33800 nM
GI50 [49]: 44.3 nM
TGI [49]: > 56500 nM
GI50 [50]: 66.7 nM
TGI [50]: 6190 nM
GI50 [51]: 115 nM
TGI [51]: 3380 nM
GI50 [52]: 67.9 nM
TGI [52]: > 43200 nM
GI50 [53]: 62.7 nM
TGI [53]: 8160 nM
GI50 [54]: 954 nM
TGI [54]: > 39100 nM
GI50 [55]: 52.4 nM
TGI [55]: > 56600 nM
GI50 [56]: 48.3 nM
TGI [56]: 6260 nM
GI50 [57]: 81.3 nM
TGI [57]: 2700 nM
GI50 [58]: 326 nM
TGI [58]: 9470 nM
